Results published in ChEMBL document CHEMBL5550129, “Optimization of benzenesulfonyl derivatives as anti-Trypanosomatidae agents: Structural design, synthesis, and pharmacological assessment against Trypanosoma cruzi and Leishmania infantum” (Bioorg Med Chem, 2024).

What was measured:
Leishmania infantum [1] = assay: Antileishmanial activity against Leishmania infantum MHOM/BR/1974/PP75 expressing red fluorescence protein infected in THP-1 cells pre-infected for 4 hrs followed by compound addition and measured after 72 hrs by microplate reader assay; type: functional, organism-based; conditions: MHOM/BR/1974/PP75, THP-1
Trypanosoma cruzi [2] = assay: Antitrypanosomal activity against Trypanosoma cruzi Tulahuen expressing Escherichia coli beta-galactosidase infected in L929 cells pretreated with parasite for 50 hrs followed by compound addition and measured after 96 hrs; type: functional, organism-based
Trypanosoma cruzi [3] = assay: Antitrypanosomal activity against Trypanosoma cruzi; type: functional, organism-based
[4] = Selectivity index, ratio of CC50 for mouse L929 cells to IC50 for Trypanosoma cruzi; type: toxicity; conditions: read-out: Ratio CC50/IC50
[5] = Cytotoxicity against human THP-1 cells; type: toxicity, cell-based
[6] = Selectivity index, ratio of CC50 for human THP-1 cells to IC50 for Leishmania braziliensis; type: toxicity; conditions: read-out: Ratio CC50/IC50
[7] = Cytotoxicity against mouse L929 cells; type: toxicity, cell-based
[8] = Selectivity index, ratio of CC50 for human THP-1 cells to IC50 for Leishmania infantum; type: toxicity; conditions: read-out: Ratio CC50/IC50
Leishmania infantum [9] = assay: Antileishmanial activity against Leishmania infantum; type: functional, organism-based
Leishmania braziliensis [10] = assay: Antileishmanial activity against Leishmania braziliensis; type: functional, organism-based
[11] = Cytotoxicity against human THP-1 cells incubated for 72 hrs by Alamar blue assay; type: toxicity, cell-based
[12] = Selectivity index, ratio of CC50 for mouse L929 cells to IC50 for Trypanosoma cruzi Tulahuen expressing Escherichia coli beta-galactosidase infected in L929 cells; type: toxicity; conditions: read-out: Ratio CC50/IC50
[13] = Cytotoxicity against mouse L929 cells incubated for 96 hrs by Alamar blue assay; type: toxicity, cell-based
[14] = Selectivity index, ratio of CC50 for human THP-1 cells to IC50 for Leishmania infantum MHOM/BR/1974/PP75 expressing red fluorescence protein infected in THP-1 cells; type: toxicity, cell-based; conditions: read-out: Ratio CC50/IC50
Leishmania braziliensis [15] = assay: Antileishmanial activity against Leishmania braziliensis MHOM/BR/75/M2904 expressing red fluorescence protein infected in THP-1 cells pre-infected for 4 hrs followed by compound addition and measured after 72 hrs by microplate reader assay; type: functional, organism-based; conditions: MHOM/BR/75/M2904, THP-1
[16] = Selectivity index, ratio of CC50 for human THP-1 cells to IC50 for Leishmania braziliensis MHOM/BR/75/M2904 expressing red fluorescence protein infected in THP-1 cells; type: toxicity, cell-based; conditions: read-out: Ratio CC50/IC50

| SMILES | IC50 (Leishmania infantum [1]) [µM] | IC50 (Trypanosoma cruzi [2]) [µM] | IC50 (Leishmania braziliensis [15]) [µM] | CC50 at 72 h [11] [µM] | selectivity ratio [12] | CC50 at 96 h [13] [µM] | selectivity ratio [14] | other results |
| --- | --- | --- | --- | --- | --- | --- | --- | --- |
| O=S(=O)(c1ccc(F)cc1)N1CCN(c2ccccc2)CC1 | > 100 | > 200 |  |  |  |  |  |  |
| O=S(=O)(c1ccc(Cl)cc1)N1CCNCC1 |  |  |  |  |  |  |  | IC50 (Trypanosoma cruzi [3]): 3.7 µM; selectivity ratio [4]: 61; CC50 [5]: 1250 µM; selectivity ratio [6]: > 250; CC50 [7]: 227 µM; selectivity ratio [8]: > 250; IC50 (Leishmania infantum [9]): 5 µM; IC50 (Leishmania braziliensis [10]): 4.5 µM |
| Nc1ccc(C(=O)N2CCN(S(=O)(=O)c3ccc(Cl)cc3)CC2)cc1 | > 100 | > 200 |  | > 1000 |  |  |  |  |
| CN(C)CCOc1ccc(N2CCN(S(=O)(=O)c3ccccc3)CC2)cc1 | > 100 | 28 |  | 650 | 3 | 91.2 | < 7 |  |
| CN(C)CCOc1ccc(N2CCN(S(=O)(=O)c3ccc([N+](=O)[O-])cc3)CC2)cc1 | 62.9 | 1.7 |  | 343 | 178 | 302 | 6 |  |
| Cc1ccc(S(=O)(=O)N2CCN(c3ccc(OCCN(C)C)cc3)CC2)cc1 | > 100 | 2.2 |  | 298 | 136 | 289 | < 3 |  |
| NCCOc1ccc(C(=O)N2CCN(S(=O)(=O)c3ccc(Cl)cc3)CC2)cc1 | > 100 | > 200 |  | 911 |  |  |  |  |
| O=C(c1ccc(N2CCNCC2)nc1)N1CCN(S(=O)(=O)c2ccc(Cl)cc2)CC1 | > 100 | 9.8 |  | 253 | 2 | 18 | < 3 |  |
| CN(C)CCOc1ccc(N2CCN(S(=O)(=O)c3ccc(Br)cc3)CC2)cc1 | > 100 | 8.3 |  | 283 | > 57 | > 427 | < 3 |  |
| CC(=O)Nc1ccc(S(=O)(=O)N2CCN(c3ccc(OCCN(C)C)cc3)CC2)cc1 | > 100 | 187 |  | > 1000 |  |  |  |  |
| COc1ccc(Cl)cc1S(=O)(=O)N1CCN(c2ccc(OCCN(C)C)cc2)CC1 | > 100 | 12.6 |  | 73.9 | 12 | 148 | < 1 |  |

Second part, led by results:

| IC50 (Leishmania infantum [1]) [µM] | IC50 (Trypanosoma cruzi [2]) [µM] | IC50 (Leishmania braziliensis [15]) [µM] | SMILES | CC50 at 72 h [11] [µM] | selectivity ratio [12] | CC50 at 96 h [13] [µM] | selectivity ratio [14] | other results |
| --- | --- | --- | --- | --- | --- | --- | --- | --- |
| 35.7 | 65.9 |  | CN(C)CCNc1ccc(C(=O)N2CCN(S(=O)(=O)c3ccc(Cl)cc3)CC2)cn1 | 388 | 6 | 395 | 11 |  |
| 36.4 | > 200 |  | N#Cc1ccc(C(=O)N2CCN(S(=O)(=O)c3ccc(Cl)cc3)CC2)cc1 | > 1000 |  |  |  |  |
| 29.6 | 13.4 | 29.6 | COc1ccc(OC)c(S(=O)(=O)N2CCN(c3ccc(OCCN(C)C)cc3)CC2)c1 | 141 | 20 | 274 | 5 | selectivity ratio [16]: 5 |
| 43.3 | 3.7 |  | CN(C)CCOc1ccc(N2CCN(S(=O)(=O)c3ccccc3Br)CC2)cc1 | 161 | 3 | 10 | 4 |  |
| 35.9 | 145 |  | O=C(c1ccc(-n2cnnn2)cc1)N1CCN(S(=O)(=O)c2ccc(Cl)cc2)CC1 | > 1000 |  |  |  |  |
| 0.6 | 137 | 4.4 | CN(C)CCOc1cccc(C(=O)N2CCN(S(=O)(=O)c3ccc(Cl)cc3)CC2)c1 |  |  |  |  |  |
| 37.5 | 4.3 |  | CN(C)CCOc1ccc(N2CCN(C(=O)c3ccc(Cl)cc3)CC2)cc1 | > 1000 | 79 | 339 | > 27 |  |
| 25.1 | 7.1 | 70.5 | COc1ccc(S(=O)(=O)N2CCN(c3ccc(OCCN(C)C)cc3)CC2)cc1 | 388 | 50 | 354 | 16 | selectivity ratio [16]: 6 |
| 0.8 | 108 | 0.7 | N#CCOc1ccc(C(=O)N2CCN(S(=O)(=O)c3ccc(Cl)cc3)CC2)cc1 | 371 |  |  | 453 | selectivity ratio [16]: 516 |
| 4.6 | 137 | 41.7 | CN(C)CCOc1cccc(N2CCN(S(=O)(=O)c3ccc(Cl)cc3)CC2)c1 | 170 |  |  | 37 | selectivity ratio [16]: 4 |
| 23.3 | 7.2 | 40.3 | N#CCOc1ccc(N2CCN(S(=O)(=O)c3ccc(Cl)cc3)CC2)cc1 | 46.6 | 71 |  | 2 | selectivity ratio [16]: 1 |
| 48.8 | > 200 |  | O=C(c1ccc([N+](=O)[O-])cc1)N1CCN(S(=O)(=O)c2ccc(Cl)cc2)CC1 | > 1000 |  |  | > 20 |  |
| 55.2 | 168 |  | CN(C)CCOc1ccc(N2CCN(S(=O)(=O)c3ccc(N)cc3)CC2)cc1 | > 1000 |  |  | > 11 |  |
| 0.9 | 13.8 | 1.4 | CN(C)CCOc1ccc(C(=O)N2CCN(S(=O)(=O)c3ccc(Cl)cc3)CC2)cc1 | > 1000 | 25 | 345 | > 2460 | selectivity ratio [16]: > 714 |
| 6.1 | 6.4 | 21 | CN(C)CCOc1ccc(N2CCN(S(=O)(=O)c3ccc(F)cc3)CC2)cc1 | > 1000 | 58 | 374 | > 405 | selectivity ratio [16]: 48 |
| 10.3 | > 200 | 7.2 | CN(C)CCOc1ccccc1C(=O)N1CCN(S(=O)(=O)c2ccc(Cl)cc2)CC1 | > 500 |  |  | > 49 | selectivity ratio [16]: > 69.5 |
